The results in this text go back to PubChem BioAssay (NCI).

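Dose response: 5 concentrations. Exposure: 48 h. Format: 96-well plates. Endpoint: linear interpolation; highest concentration if not reached. The concentration for full growth arrest is given as TGI.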

Test systems include MCF7 breast; A549 NSCLC; SNB-19 CNS; SR leukemia; HCC-2998 colon; HL-60(TB) leukemia; OVCAR-3 ovarian; KM12 colon; HOP-62 NSCLC; SF-295 CNS; COLO 205 colon; SK-MEL-5 melanoma; HT29 colon; HOP-92 NSCLC; U251 CNS; NCI/ADR-RES ovarian; RPMI-8226 leukemia.
Common to all, as to assay: growth of human tumour cells (NCI), 48 h

Turning to `CC1=N[C@](C)(C2CC3C=CC2C3=O)COC1=O` (stereo partly drawn), the TGI in the test on MCF7 breast, in the test with A549 NSCLC, in the test with SNB-19 CNS, in the test with SR leukemia, in the test on HCC-2998 colon and with HL-60(TB) leukemia was greater than 100 µM in each case. Moreover, the TGI in the test on OVCAR-3 ovarian, with KM12 colon, with HOP-62 NSCLC, in the test on SF-295 CNS, with COLO 205 colon and in the test with SK-MEL-5 melanoma was greater than 100 µM in each case. Further, the TGI in the test with HT29 colon, in the test with HOP-92 NSCLC and in the test on U251 CNS was greater than 100 µM each time.
For `O=S(=O)(O)c1ccc2c(N=Nc3ccc(F)cc3)c(O)c(S(=O)(=O)O)cc2c1`, the TGI in the test on A549 NSCLC, in the test with SNB-19 CNS, in the test on SR leukemia, with NCI/ADR-RES ovarian, in the test with OVCAR-3 ovarian and in the test on KM12 colon was greater than 100 µM throughout. The TGI in the test with HOP-62 NSCLC, in the test on SF-295 CNS, in the test with COLO 205 colon, in the test on SK-MEL-5 melanoma, with RPMI-8226 leukemia and in the test with HT29 colon was greater than 100 µM in each case. The TGI with HOP-92 NSCLC and with U251 CNS was greater than 100 µM in each case.
Regarding `CC(C)C1COC(c2cccc(C3=N[C@@H](C(C)C)CO3)n2)=N1` (stereo partly drawn), the TGI with A549 NSCLC, with SNB-19 CNS, in the test with SR leukemia, in the test on HCC-2998 colon, in the test on HL-60(TB) leukemia and with OVCAR-3 ovarian was greater than 100 µM each time. The TGI with KM12 colon, in the test on HOP-62 NSCLC, with SF-295 CNS, in the test on COLO 205 colon, in the test on SK-MEL-5 melanoma and with RPMI-8226 leukemia was greater than 100 µM throughout. Moreover, the TGI in the test with HT29 colon, with HOP-92 NSCLC and in the test with U251 CNS was greater than 100 µM each time.
With `O=C1Nc2ccccc2/C1=C/c1c(Cl)[nH]c2ccc(O)cc12`, the TGI with MCF7 breast is 14.8 µM; with A549 NSCLC, greater than 37.8 µM; with SNB-19 CNS, greater than 58.8 µM; in the test with SR leukemia, 12 µM; with HCC-2998 colon it was 24.2 µM; in the test on HL-60(TB) leukemia it was 5.31 µM. Besides, the TGI is greater than 48.1 µM in the test with OVCAR-3 ovarian; 15.6 µM with KM12 colon; 19.1 µM in the test on HOP-62 NSCLC; greater than 25.5 µM in the test on SF-295 CNS; 6.4 µM with COLO 205 colon; 9.54 µM in the test on SK-MEL-5 melanoma. In addition, the TGI in the test with RPMI-8226 leukemia is 14.1 µM; in the test on HT29 colon, 12.1 µM; in the test with HOP-92 NSCLC, 45 µM; in the test on U251 CNS it was 14.5 µM.
For the compound `CCOc1ncn(-c2ccc(NC(=S)NC34CC5CC(CC(C5)C3)C4)cc2)n1`, the TGI in the test on MCF7 breast, in the test with A549 NSCLC, with SNB-19 CNS, with SR leukemia, in the test on HCC-2998 colon and in the test with HL-60(TB) leukemia was greater than 100 µM each time. Besides, the TGI with OVCAR-3 ovarian, in the test with KM12 colon, in the test with HOP-62 NSCLC, in the test with SF-295 CNS, in the test on COLO 205 colon and in the test with SK-MEL-5 melanoma was greater than 100 µM each time. Besides, the TGI was greater than 100 µM in the test with RPMI-8226 leukemia, greater than 100 µM with HT29 colon and 60.6 µM in the test with HOP-92 NSCLC.
Consider `C=C=C(Sc1ccccc1)C(C)(C)OC(C)=O`, for which the TGI with A549 NSCLC is 74.8 µM; with SNB-19 CNS, 40.4 µM; in the test on SR leukemia it was greater than 100 µM; in the test with HCC-2998 colon, 43.1 µM; in the test on HL-60(TB) leukemia it was 81 µM; with OVCAR-3 ovarian, 31.1 µM. Besides, the TGI in the test with KM12 colon is 31.4 µM; in the test on SF-295 CNS it was 33.6 µM; in the test with COLO 205 colon, 32.5 µM; in the test with SK-MEL-5 melanoma it was 29.3 µM; with RPMI-8226 leukemia, greater than 100 µM; in the test on HT29 colon, 37 µM. Further, the TGI in the test with HOP-92 NSCLC was 34.2 µM; in the test on U251 CNS it was 31.6 µM.
`Cc1ccc2c(C)c3ccc4ccccc4c3c[n+]2c1`: the TGI was greater than 100 µM in the test with A549 NSCLC; 40.8 µM in the test with SNB-19 CNS; 42.8 µM with SR leukemia; 28.6 µM with HCC-2998 colon; greater than 100 µM in the test with HL-60(TB) leukemia; 38.1 µM in the test with OVCAR-3 ovarian. The TGI in the test with KM12 colon was 14.6 µM; in the test with HOP-62 NSCLC, 51.2 µM; in the test with SF-295 CNS, greater than 81.1 µM; with COLO 205 colon it was 27.2 µM; in the test with SK-MEL-5 melanoma it was 25.4 µM; in the test with RPMI-8226 leukemia it was 64.8 µM. For the same compound, the figures for the TGI in the test on HT29 colon, with HOP-92 NSCLC and in the test with U251 CNS were greater than 100 µM, 52.7 µM and 23 µM, respectively.
As to `COc1ccc(-c2cc(=O)c3cc4c(cc3[nH]2)OCO4)cc1`, the TGI with A549 NSCLC, in the test with SNB-19 CNS, with SR leukemia, in the test on HCC-2998 colon, in the test with HL-60(TB) leukemia and with OVCAR-3 ovarian was greater than 100 µM in each case. The TGI in the test on HOP-62 NSCLC, with SF-295 CNS, in the test on COLO 205 colon, with SK-MEL-5 melanoma, in the test on RPMI-8226 leukemia and in the test on HT29 colon was greater than 100 µM each time. The compound also gave a TGI in the test with U251 CNS greater than 100 µM.
For `c1ccc2cc(CNCCOCCOCCNCc3ccc4ccccc4c3)ccc2c1`, the TGI amounted to 3.41 µM in the test on MCF7 breast; 3.46 µM with A549 NSCLC; 5.31 µM in the test on SNB-19 CNS; 5.45 µM with SR leukemia; 0.54 µM in the test with HCC-2998 colon; 4.07 µM in the test with HL-60(TB) leukemia. Also, the TGI with OVCAR-3 ovarian was found to be 3.7 µM; in the test on KM12 colon it was 3.16 µM; in the test with HOP-62 NSCLC, 4.01 µM; in the test with SF-295 CNS it was 3.11 µM; in the test with COLO 205 colon, 3.01 µM; in the test on SK-MEL-5 melanoma it was 5.66 µM. The TGI was determined as 4.31 µM with RPMI-8226 leukemia, 2.76 µM in the test on HT29 colon, 3.14 µM in the test on HOP-92 NSCLC and 4.07 µM with U251 CNS.
